Laboratory results from patent US20050074879A1, “Antisense oligonucleotide modulation of STAT3 expression” (priority 2000, published 2005).
Oligonucleotides are written 5' to 3', each unit as a sugar letter and its base; * is a phosphorothioate linkage, no mark a phosphodiester; rarer units and linkages stand in square brackets, end groups in braces. Plain capitals give the bases only. e = 2'-O-(2-methoxyethyl) (MOE); [5mC] = 5-methylcytosine; d = 2'-deoxy (DNA)

Assays:
Human STAT3 mRNA [1] = test: Inhibition of human STAT3 mRNA levels in A549 cells, 75 nM, real-time PCR (Table 13); assay type: cell-based; conditions: 75 nM oligonucleotide with LIPOFECTIN, real-time PCR PPS 199, percent inhibition relative to untreated control cells, average of 2 experiments
How it was run: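 A549 cells at 65–75% confluency were transfected in duplicate with 75 nM oligonucleotide plus […] Lipofectin for 4–7 h at 37° C and harvested 16–24 h later. STAT3 mRNA was quantified by real-time RT-PCR with primer-probe set PPS 199 and normalized to RiboGreen total RNA. Inhibition is relative to untreated controls.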

Human STAT3 mRNA [2] = test: Human STAT3 mRNA dose response in T-24 cells, real-time PCR with PPS 199 (Table 18); assay type: cell-based; conditions: 16 hours, − decrease, + increase relative to untreated control
How it was run: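 Bladder carcinoma T-24 cells transfected with oligonucleotide at 18.75, 37.5, 75 or 150 nM plus 3 ug/mL LIPOFECTIN per 100 nM, 16 h. STAT3 mRNA quantified by real-time PCR (PPS 199), normalized with Ribogreen; change given relative to untreated cells.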

Row | Substance | % Inhib (inhibition of human STAT 3 mRNA levels) (Human STAT3 mRNA [1]) | Percent change of STAT3 expression using PPS 199 (Human STAT3 mRNA [2]; 18.75 nM oligonucleotide) | Percent change of STAT3 expression using PPS 199 (Human STAT3 mRNA [2]; 37.5 nM oligonucleotide) | Percent change of STAT3 expression using PPS 199 (Human STAT3 mRNA [2]; 75 nM oligonucleotide) | Percent change of STAT3 expression using PPS 199 (Human STAT3 mRNA [2]; 150 nM oligonucleotide)
1 | 337332 (antisense eG*eA*eA*eG*e[5mC]*d[5mC]*d[5mC]*dT*dT*dG*d[5mC]*d[5mC]*dA*dG*d[5mC]*e[5mC]*eA*eT*eG*eT) [compound 337332] | 91% | −63% | −79% | −87% | −92%
2 | 337333 (antisense eA*eA*eG*eG*eA*dG*dA*dA*dG*d[5mC]*d[5mC]*d[5mC]*dT*dT*dG*e[5mC]*e[5mC]*eA*eG*e[5mC]) [compound 337333] | 90% | −48% | −73% | −82% | −88%
3 | 337348 (antisense eT*e[5mC]*e[5mC]*eG*eA*dA*dT*dG*d[5mC]*d[5mC]*dT*d[5mC]*d[5mC]*dT*d[5mC]*e[5mC]*eT*eT*eG*eG) [compound 337348] | 92% | −61% | −77% | −82% | −86%
